Experiments:
A-375 = assay: Cytotoxicity against human A375 cells after 72 hrs by MTT assay; type: functional, cell-based
BJ = assay: Cytotoxicity against human BJ cells after 72 hrs by MTT assay; type: cell-based; settings: human, bj
HT-29 = assay: Cytotoxicity against human HT-29 cells after 72 hrs by MTT assay; type: functional, cell-based; settings: HT-29, 72 h
Jurkat = assay: Cytotoxicity against human Jurkat cells after 72 hrs by XTT assay; type: functional, cell-based
HeLa = assay: Cytotoxicity against human HeLa cells after 72 hrs by MTT assay; type: functional, cell-based
MIA PaCa-2 = assay: Cytotoxicity against human MIAPaCa2 cells after 72 hrs by MTT assay; type: functional, cell-based
PC-3 = assay: Cytotoxicity against human PC3 cells after 72 hrs by MTT assay; type: functional, cell-based
MCF7 = assay: Cytotoxicity against human MCF7 cells after 72 hrs by MTT assay; type: functional, cell-based

| Structure (SMILES) | Activity (A-375) | Activity (BJ) | IC50 (HT-29) | Activity (Jurkat) | IC50 (HeLa) | Activity (MIA PaCa-2) | Activity (PC-3) | Activity (MCF7) |
| --- | --- | --- | --- | --- | --- | --- | --- | --- |
| Cc1nccn1C(=O)OC[C@]1(C)C=C(C=O)[C@@]2(C)[C@H]1CC[C@]1(C)[C@@H]2C[C@@H](F)[C@]23OC(=O)[C@@]4(CC[C@@H](C)[C@H](C)[C@H]42)CC[C@]31C | Dose-dependent effect | Dose-dependent effect | 2.8 µM | Dose-dependent effect | 1.63 µM | Dose-dependent effect | Dose-dependent effect | Dose-dependent effect |
| CNC(=O)[C@]12CC[C@@H](C)[C@H](C)[C@H]1C1=CC[C@@H]3[C@@]4(C)C[C@@H](OC(C)=O)[C@H](OC(C)=O)[C@@](C)(COC(C)=O)[C@@H]4CC[C@@]3(C)[C@]1(C)CC2 | Dose-dependent effect | Dose-dependent effect | – | Dose-dependent effect | 1.1 µM | Dose-dependent effect | Dose-dependent effect | Dose-dependent effect |
| CC(=O)OC[C@@]1(C)[C@@H]2CC[C@]3(C)[C@H](C[C@@H](F)[C@]45[C@@H]6[C@@H](C)[C@H](C)CC[C@@]6(CC[C@]43C)C(=O)N5C)[C@@]2(C)C[C@@H](OC(C)=O)[C@@H]1OC(C)=O | Dose-dependent effect | Dose-dependent effect | 8.5 µM | Dose-dependent effect | 2.95 µM | Dose-dependent effect | Dose-dependent effect | Dose-dependent effect |
| CC(=O)OC[C@@]1(C)[C@@H]2CC[C@]3(C)[C@H](CC=C4[C@@H]5[C@@H](C)[C@H](C)CC[C@]5(C(=O)O)CC[C@]43C)[C@@]2(C)C[C@@H](OC(C)=O)[C@@H]1OC(C)=O | Dose-dependent effect | Dose-dependent effect | – | Dose-dependent effect | 6.1 µM | Dose-dependent effect | Dose-dependent effect | Dose-dependent effect |
| C[C@H]1[C@H](C)CC[C@@]23CC[C@]4(C)[C@](OC2=O)([C@H](F)C[C@@H]2[C@@]5(C)C[C@@H](O)OC[C@](C)(C=O)[C@@H]5CC[C@]24C)[C@H]13 | Dose-dependent effect | Dose-dependent effect | 11.2 µM | Dose-dependent effect | 7.4 µM | Dose-dependent effect | Dose-dependent effect | Dose-dependent effect |
| C[C@H]1[C@H](C)CC[C@@]23CC[C@]4(C)[C@](OC2=O)([C@H](F)C[C@@H]2[C@@]5(C)C(C=O)=C[C@@](C)(COC(=O)CCC(=O)O)[C@@H]5CC[C@]24C)[C@H]13 | Dose-dependent effect | Dose-dependent effect | 6.35 µM | Dose-dependent effect | 3.48 µM | Dose-dependent effect | Dose-dependent effect | Dose-dependent effect |
| C[C@H]1[C@H](C)CC[C@@]23CC[C@]4(C)[C@](OC2=O)([C@H](F)C[C@@H]2[C@@]5(C)C(C=O)=C[C@@](C)(CO)[C@@H]5CC[C@]24C)[C@H]13 | Dose-dependent effect | Dose-dependent effect | 1.28 µM | Dose-dependent effect | 1.08 µM | Dose-dependent effect | Dose-dependent effect | Dose-dependent effect |
| CC(=O)OC[C@@]1(C)[C@@H]2CC[C@]3(C)[C@H](C[C@@H](F)[C@]45OC(=O)[C@@]6(CC[C@@H](C)[C@H](C)[C@H]64)CC[C@]53C)[C@@]2(C)C[C@@H](OC(C)=O)[C@@H]1OC(C)=O | Dose-dependent effect | Dose-dependent effect | 6.38 µM | Dose-dependent effect | 4.43 µM | Dose-dependent effect | Dose-dependent effect | Dose-dependent effect |
| C[C@H]1[C@H](C)CC[C@@]23CC[C@]4(C)[C@](OC2=O)([C@H](F)C[C@@H]2[C@@]5(C)C(C#N)=C[C@@](C)(CO)[C@@H]5CC[C@]24C)[C@H]13 | Dose-dependent effect | Dose-dependent effect | – | Dose-dependent effect | 7.5 µM | Dose-dependent effect | Dose-dependent effect | Dose-dependent effect |
| CC(=O)OC[C@@]1(C)[C@@H]2CC[C@]3(C)[C@H](C[C@@H](F)[C@]45OC(=O)[C@@]6(CC[C@@H](C)[C@H](C)[C@H]64)CC[C@]53C)[C@@]2(C)CC(=O)[C@@H]1OC(C)=O | Dose-dependent effect | Dose-dependent effect | – | Dose-dependent effect | 11.7 µM | Dose-dependent effect | Dose-dependent effect | Dose-dependent effect |
| COC(=O)[C@H](C)NC(=O)[C@]12CC[C@@H](C)[C@H](C)[C@H]1C1=CC[C@@H]3[C@@]4(C)C[C@@H](OC(C)=O)[C@H](OC(C)=O)[C@@](C)(COC(C)=O)[C@@H]4CC[C@@]3(C)[C@]1(C)CC2 | Dose-dependent effect | Dose-dependent effect | – | Dose-dependent effect | 1.07 µM | Dose-dependent effect | Dose-dependent effect | Dose-dependent effect |
| COC(=O)CN1C(=O)[C@]23CC[C@@H](C)[C@H](C)[C@H]2[C@]12[C@H](F)C[C@@H]1[C@@]4(C)C[C@@H](OC(C)=O)[C@H](OC(C)=O)[C@@](C)(COC(C)=O)[C@@H]4CC[C@@]1(C)[C@]2(C)CC3 | Dose-dependent effect | Dose-dependent effect | 9.23 µM | Dose-dependent effect | 2.72 µM | Dose-dependent effect | Dose-dependent effect | Dose-dependent effect |
| COC(=O)[C@H](C)N1C(=O)[C@]23CC[C@@H](C)[C@H](C)[C@H]2[C@]12[C@H](F)C[C@@H]1[C@@]4(C)C[C@@H](OC(C)=O)[C@H](OC(C)=O)[C@@](C)(COC(C)=O)[C@@H]4CC[C@@]1(C)[C@]2(C)CC3 | Dose-dependent effect | Dose-dependent effect | 6.37 µM | Dose-dependent effect | 3.97 µM | Dose-dependent effect | Dose-dependent effect | Dose-dependent effect |
| CC(=O)OC[C@]1(C)C=C(C=O)[C@@]2(C)[C@H]1CC[C@]1(C)[C@@H]2C[C@@H](F)[C@]23OC(=O)[C@@]4(CC[C@@H](C)[C@H](C)[C@H]42)CC[C@]31C | Dose-dependent effect | Dose-dependent effect | 2.02 µM | Dose-dependent effect | 1.4 µM | Dose-dependent effect | Dose-dependent effect | Dose-dependent effect |
| C[C@H]1[C@H](C)CC[C@@]23CC[C@]4(C)[C@](OC2=O)([C@H](F)C[C@@H]2[C@@]5(C)C(C=O)=C[C@@](C)(COC(=O)n6ccnc6)[C@@H]5CC[C@]24C)[C@H]13 | Dose-dependent effect | Dose-dependent effect | 2.37 µM | Dose-dependent effect | 1.62 µM | Dose-dependent effect | Dose-dependent effect | Dose-dependent effect |
| CC(=O)OC[C@@]1(C)[C@@H]2CC[C@]3(C)[C@H](C[C@@H](F)[C@]45NC(=O)[C@@]6(CC[C@@H](C)[C@H](C)[C@H]64)CC[C@]53C)[C@@]2(C)C[C@@H](OC(C)=O)[C@@H]1OC(C)=O | Dose-dependent effect | Dose-dependent effect | 7.5 µM | Dose-dependent effect | 2.37 µM | Dose-dependent effect | Dose-dependent effect | Dose-dependent effect |
| C[C@H]1[C@H](C)CC[C@@]23CC[C@]4(C)[C@](OC2=O)([C@H](F)C[C@@H]2[C@@]5(C)C[C@@H](O)[C@H](O)[C@@](C)(CO)[C@@H]5CC[C@]24C)[C@H]13 | Dose-dependent effect | Dose-dependent effect | 51.2 µM | Dose-dependent effect | 60.2 µM | Dose-dependent effect | Dose-dependent effect | Dose-dependent effect |
| COC(=O)CNC(=O)[C@]12CC[C@@H](C)[C@H](C)[C@H]1C1=CC[C@@H]3[C@@]4(C)C[C@@H](OC(C)=O)[C@H](OC(C)=O)[C@@](C)(COC(C)=O)[C@@H]4CC[C@@]3(C)[C@]1(C)CC2 | Dose-dependent effect | Dose-dependent effect | – | Dose-dependent effect | 0.98 µM | Dose-dependent effect | Dose-dependent effect | Dose-dependent effect |
| CC(=O)OC[C@@]1(C)[C@@H]2CC[C@]3(C)[C@H](CC=C4[C@@H]5[C@@H](C)[C@H](C)CC[C@]5(C(N)=O)CC[C@]43C)[C@@]2(C)C[C@@H](OC(C)=O)[C@@H]1OC(C)=O | Dose-dependent effect | Dose-dependent effect | – | Dose-dependent effect | 1.65 µM | Dose-dependent effect | Dose-dependent effect | Dose-dependent effect |
